# According to ChEMBL document CHEMBL1201862, “PubChem BioAssay data set” (2004):
# Active and inactive are the calls of the source.
# Molecular target: T1, Protein RecA (Mycobacterium tuberculosis, UniProt P9WHJ3)
# T1 sequence (P9WHJ3 whole entry): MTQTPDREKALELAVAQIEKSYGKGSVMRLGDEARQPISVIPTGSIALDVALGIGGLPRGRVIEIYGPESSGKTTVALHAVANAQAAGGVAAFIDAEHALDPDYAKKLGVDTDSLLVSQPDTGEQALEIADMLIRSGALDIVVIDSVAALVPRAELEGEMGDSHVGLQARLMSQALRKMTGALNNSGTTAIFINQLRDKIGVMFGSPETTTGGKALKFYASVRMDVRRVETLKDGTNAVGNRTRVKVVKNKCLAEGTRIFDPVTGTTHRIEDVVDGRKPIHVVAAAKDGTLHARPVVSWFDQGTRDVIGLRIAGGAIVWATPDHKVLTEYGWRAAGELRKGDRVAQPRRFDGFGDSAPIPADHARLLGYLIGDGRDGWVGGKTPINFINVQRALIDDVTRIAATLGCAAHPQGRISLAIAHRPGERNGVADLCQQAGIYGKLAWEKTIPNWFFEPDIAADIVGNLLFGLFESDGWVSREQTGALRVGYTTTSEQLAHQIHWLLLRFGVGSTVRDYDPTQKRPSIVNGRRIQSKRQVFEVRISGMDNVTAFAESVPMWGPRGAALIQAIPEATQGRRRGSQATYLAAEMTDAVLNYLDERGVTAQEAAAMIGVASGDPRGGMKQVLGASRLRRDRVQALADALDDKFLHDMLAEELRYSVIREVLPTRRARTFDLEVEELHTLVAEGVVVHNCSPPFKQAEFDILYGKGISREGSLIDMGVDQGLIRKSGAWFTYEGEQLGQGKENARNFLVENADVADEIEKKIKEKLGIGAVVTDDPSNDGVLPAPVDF
# Assay: Fluorescence Cell-Free Homogeneous Dose Retest to Identify Inhibitors of RecA-Intein Splicing Activity. [Related pubchem assays (depositor defined):AID2097, AID2223, AID489010, AID492950]
# Type: functional
# Conditions: not given
row,Compound,EC50
1,CCCc1n[nH]c2c1C(c1ccc(OCCN3CCOCC3)c(OCC)c1)C(C#N)=C(N)O2 (stereo not given),10 µM (active)

# Molecular target: Cytochrome P450 3A4 (Homo sapiens, UniProt P08684);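 note: CYP3A4 tested as one member of a cytochrome P450 panel screen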
# Sequence (P08684 whole entry): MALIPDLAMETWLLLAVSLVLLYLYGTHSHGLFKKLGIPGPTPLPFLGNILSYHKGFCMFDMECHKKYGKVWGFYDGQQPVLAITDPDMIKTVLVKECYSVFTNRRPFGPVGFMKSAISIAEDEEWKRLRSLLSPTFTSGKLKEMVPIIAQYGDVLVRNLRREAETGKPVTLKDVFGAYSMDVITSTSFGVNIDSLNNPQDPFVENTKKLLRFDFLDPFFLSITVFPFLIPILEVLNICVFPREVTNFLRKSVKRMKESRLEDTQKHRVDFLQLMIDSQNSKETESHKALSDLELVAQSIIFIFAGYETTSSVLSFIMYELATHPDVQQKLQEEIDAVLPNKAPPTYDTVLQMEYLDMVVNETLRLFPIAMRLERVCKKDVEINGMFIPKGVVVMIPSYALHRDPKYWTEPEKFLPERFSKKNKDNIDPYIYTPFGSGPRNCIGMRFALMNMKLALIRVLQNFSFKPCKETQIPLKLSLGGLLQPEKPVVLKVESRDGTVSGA
# Conditions: not given
row,Compound,AC50
1,COCCn1c(=O)cnc2cnc(Oc3cccc(Cl)c3)nc21,31.6 µM (inconclusive)
2,CCCC1(C(=O)OC)C=C2C(=C(c3ccccc3)C(=O)C2C)CN1 (stereo not given),10 µM (inconclusive)
3,Cn1c(=O)c(-c2cccc(F)c2)nc2cncnc21,20 µM (inconclusive)
4,CN(C)c1ncnc2ccc(-c3ccccc3C#N)cc12,1.58 µM (inconclusive)
5,Nc1n[nH]c2ccccc12,3.98 µM (inconclusive)
6,Cc1nc(-c2cccnc2)sc1C(N)=O,28.2 µM (inconclusive)
7,COC(=O)c1scc(C)c1NC(=O)Cc1ccccc1,22.4 µM (inconclusive)
8,O=C(CSc1nc2ccccc2c2ccccc12)c1ccccc1,3.98 µM (inconclusive)
9,COc1ccc(C(=O)N2CCC3(CC2)CN(c2ccncc2)C3)cc1,15.8 µM (inconclusive)
10,O=C1C2CCC(C(O)C2)N1Cc1ccccc1 (stereo not given),17.8 µM (inconclusive)
11,O=C(N/N=C/c1ccc(Cl)cc1Cl)c1cccc(F)c1,31.6 µM (inconclusive)
12,CCc1cc2c(nc1CC)CCN(CC/C(C)=N/OCC[C@@H]1C=C[C@H](OC(C)=O)[C@H](COC(C)=O)O1)C2,3.16 µM (inconclusive)
13,Cc1c(CCC(C)C)c(-n2ccnc2C)n2c(nc3ccccc32)c1C#N,14.1 µM (inconclusive)
14,COCCn1c(=O)c(-c2ccccc2)nc2cnc(OC)nc21,25.1 µM (inconclusive)
15,Cc1ccccc1C(=O)N1CCc2ccccc2C1,6.31 µM (inconclusive)
16,COC(=O)[C@@H]1CC[C@H](C)[C@@H](c2ccc(C)cc2)N1C(=O)c1ccc(/C=N\O[C@@H](C)CN2CCCc3nc(C)c(C)cc32)cc1,3.98 µM (inconclusive)
17,Cc1ccc(-n2c(C)cc(C(=S)N3CCOCC3)c2C)cc1C,31.6 µM (inconclusive)
18,COc1ncc2nc(C)c(=O)n(-c3ccccc3)c2n1,25.1 µM (inconclusive)
19,C#CCCCO/N=C1/C[C@@H](O)[C@@H](O)[C@@H]2[C@@H]3C(=O)N(C[C@@H]4CCCO4)C(=O)[C@H]3CC[C@H]12,6.31 µM (inconclusive)
20,N#C/C(=C(/O)CN1CCCCC1)c1nc(-c2ccc(Cl)cc2)cs1,10 µM (inconclusive)
21,O=c1c(-c2ccc(Cl)cc2)nc2cnc(N3CCNCC3)nc2n1-c1ccccc1,12.6 µM (inconclusive)
22,O=C(O)/C=C\c1c[nH]cn1 [CIS-UROCANIC ACID],0.251 µM (inconclusive)
23,O=c1c2ccccc2c(-c2ccc(Br)cc2)nn1Cc1ccccc1,25.1 µM (inconclusive)

# Molecular target: Cytochrome P450 2D6 (Homo sapiens, UniProt P10635);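 note: CYP2D6 member of a cytochrome P450 panel assay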
# Sequence (P10635 whole entry): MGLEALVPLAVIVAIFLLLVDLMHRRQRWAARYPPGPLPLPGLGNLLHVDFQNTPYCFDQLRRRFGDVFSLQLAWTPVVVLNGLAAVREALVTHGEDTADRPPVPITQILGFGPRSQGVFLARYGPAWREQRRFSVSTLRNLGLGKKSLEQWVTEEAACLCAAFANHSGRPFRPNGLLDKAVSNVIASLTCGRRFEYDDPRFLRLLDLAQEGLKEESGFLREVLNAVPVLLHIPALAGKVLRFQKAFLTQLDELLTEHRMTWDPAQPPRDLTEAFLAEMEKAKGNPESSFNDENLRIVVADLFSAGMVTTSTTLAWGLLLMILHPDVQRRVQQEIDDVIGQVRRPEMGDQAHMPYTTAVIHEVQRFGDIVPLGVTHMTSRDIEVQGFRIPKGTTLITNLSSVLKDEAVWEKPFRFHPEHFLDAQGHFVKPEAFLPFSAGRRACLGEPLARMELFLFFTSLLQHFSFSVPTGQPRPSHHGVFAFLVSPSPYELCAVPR
# Conditions: not given
row,Compound,AC50
1,O=C1Nc2ccccc2C(O)(C(=O)NCc2ccc3c(c2)OCO3)N1c1ccc(Cl)c(Cl)c1 (stereo not given),1.12 µM (inconclusive)
2,COc1ccc(C(=O)N2CCC3(CC2)CN(c2ccncc2)C3)cc1,25.1 µM (inconclusive)
3,O=C(N/N=C/c1ccc(Cl)cc1Cl)c1cccc(F)c1,8.91 µM (inconclusive)
4,CCC(C)N1C(=O)C2C(C(=O)Nc3cccc(OC)c3)C3C=CC2(O3)C1C(=O)NC1CCCCC1C (stereo not given),7.08 µM (inconclusive)
5,COC(=O)[C@@H]1CC[C@H](C)[C@@H](c2ccc(C)cc2)N1C(=O)c1ccc(/C=N\O[C@@H](C)CN2CCCc3nc(C)c(C)cc32)cc1,6.31 µM (inconclusive)
6,COC(=O)[C@@]1(Cc2ccccc2)[C@H]2c3cc(C(=O)N(C)C)n(Cc4ccc(O)c(OC)c4)c3C[C@H]2CN1C(=O)c1ccccc1,31.6 µM (inconclusive)
7,Cc1ccc(-n2c(C)cc(C(=S)N3CCOCC3)c2C)cc1C,22.4 µM (inconclusive)
8,CCCC/C=C/C(NC(=O)c1ccco1)c1ccccc1 (stereo not given),39.8 µM (inconclusive)
9,N#Cc1c(Cl)cccc1-n1ccnc1,7.08 µM (inconclusive)
10,O=C(CCN1CCCCC1)N1CCc2c([nH]c3ccccc23)[C@H]1c1cccnc1,3.16 µM (inconclusive)
11,N#Cc1ccc(CN2CCCC3(CCNCC3)C2)cc1,20 µM (inconclusive)
12,O=[N+]([O-])c1ccc(C2=Nn3c(nnc3-c3ccc(Cl)cc3)SC2)o1,5.01 µM (inconclusive)
13,CC#CCOC(=O)c1c(C)nc2sc3c(c2c1N)CC[C@@H](O)C3,31.6 µM (inconclusive)

# Test system: not listed separately
# Assay: cytotoxicity toward NIH3T3 fibroblasts, dose response, counter-screen, cell-based, ATP luminescence, mouse fibroblasts (AID 2010);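 note: cells exposed to compound for about 90 hours before reading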
# Type: functional
# Conditions: not given
row,Compound,EC50
1,Cc1nn(Cc2ccc(C(=O)Nc3ccc(C(=O)OC(C)C)cc3)o2)c(C)c1Cl,> 60 µM (not active)
2,Cc1nc(C(=O)Nc2ccc(Cl)cc2)sc1C1(C)CC(c2cccc([N+](=O)[O-])c2)=NO1 (stereo not given),> 60 µM (not active)
3,CC(C(=O)N1CCc2ccccc21)N1CCN(Cc2ccccc2)CC1 (stereo not given),> 60 µM (not active)
4,COc1ccc(C(=O)c2ccc([N+](=O)[O-])cc2Cl)cc1,> 30 µM (not active)
5,CSc1ccccc1NC(=O)c1cc(-c2cccnc2)nc2ccc(Br)cc12,> 60 µM (not active)
6,COc1ccc(-c2cn3c([n+]2-c2ccccc2)SCC3)cc1,> 60 µM (not active)
7,CN1CCN(c2ccccc2NC(=O)c2ccc(-c3ccc(Br)cc3)o2)CC1,4.08 µM (active)
8,Cc1cccc(NC(=O)Nc2ccncc2)c1,> 60 µM (not active)
9,c1ccc(Nc2cccc(Nc3ccccc3)c2)cc1,> 60 µM (not active)
10,COc1ccc(N2CCN(C(CNC(=O)C(=O)NCCCn3ccnc3)c3cccnc3)CC2)cc1 (stereo not given),10.4 µM (active)
11,O=C(/C=C/c1cn(-c2ccccc2)nc1-c1cccc(Cl)c1)N1CCN(c2ccccn2)CC1,> 60 µM (not active)
12,O=C1CCC[C@@H]2Cc3[nH]c4c(Cl)ccc(Cl)c4c3[C@@H]3CCN1[C@H]23,> 60 µM (not active)
13,Clc1ccc(NC2=NCCCS2)cc1Cl,> 60 µM (not active)
14,CCCCCC(=O)Nc1cc(S(=O)(=O)N2CCOCC2)ccc1N1CCN(C)CC1,> 60 µM (not active)
15,CCN1CCCC1CNC(=O)c1ccc(Sc2ccc(F)cc2)c([N+](=O)[O-])c1 (stereo not given),> 60 µM (inconclusive)

# Test system: not listed separately
# Assay: inhibitors of intracellular T. cruzi replication, confirmation, NIH3T3 host cells, beta-gal luminescence (AID 2044);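 note: intracellular parasites grown in NIH/3T3 mouse fibroblasts as host cells; luminescent beta-galactosidase reporter signal from transgenic T. cruzi replicating inside host cells; inhibitors lower the luminescence signal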
# Type: functional, cell-based
# Conditions: not given
row,Compound,EC50
1,Cc1nn(Cc2ccc(C(=O)Nc3ccc(C(=O)OC(C)C)cc3)o2)c(C)c1Cl,2.86 µM (active)
2,Cc1nc(C(=O)Nc2ccc(Cl)cc2)sc1C1(C)CC(c2cccc([N+](=O)[O-])c2)=NO1 (stereo not given),0.545 µM (active)
3,CC(C(=O)N1CCc2ccccc21)N1CCN(Cc2ccccc2)CC1 (stereo not given),0.793 µM (active)
4,COc1ccc(C(=O)c2ccc([N+](=O)[O-])cc2Cl)cc1,2.15 µM (active)
5,CSc1ccccc1NC(=O)c1cc(-c2cccnc2)nc2ccc(Br)cc12,2 µM (active)
6,COc1ccc(-c2cn3c([n+]2-c2ccccc2)SCC3)cc1,1.3 µM (active)
7,CN1CCN(c2ccccc2NC(=O)c2ccc(-c3ccc(Br)cc3)o2)CC1,2.18 µM (active)
8,Cc1cccc(NC(=O)Nc2ccncc2)c1,0.781 µM (active)
9,c1ccc(Nc2cccc(Nc3ccccc3)c2)cc1,0.937 µM (active)
10,COc1ccc(N2CCN(C(CNC(=O)C(=O)NCCCn3ccnc3)c3cccnc3)CC2)cc1 (stereo not given),< 0.1 µM (active)
11,O=C(/C=C/c1cn(-c2ccccc2)nc1-c1cccc(Cl)c1)N1CCN(c2ccccn2)CC1,1.72 µM (active)
12,O=C1CCC[C@@H]2Cc3[nH]c4c(Cl)ccc(Cl)c4c3[C@@H]3CCN1[C@H]23,1.33 µM (active)
13,Clc1ccc(NC2=NCCCS2)cc1Cl,1.8 µM (active)
14,CCCCCC(=O)Nc1cc(S(=O)(=O)N2CCOCC2)ccc1N1CCN(C)CC1,0.813 µM (active)
15,CCN1CCCC1CNC(=O)c1ccc(Sc2ccc(F)cc2)c([N+](=O)[O-])c1 (stereo not given),0.879 µM (active)

# Molecular target: Cytochrome P450 2C19 (Homo sapiens, UniProt P33261)
# Sequence (P33261 whole entry): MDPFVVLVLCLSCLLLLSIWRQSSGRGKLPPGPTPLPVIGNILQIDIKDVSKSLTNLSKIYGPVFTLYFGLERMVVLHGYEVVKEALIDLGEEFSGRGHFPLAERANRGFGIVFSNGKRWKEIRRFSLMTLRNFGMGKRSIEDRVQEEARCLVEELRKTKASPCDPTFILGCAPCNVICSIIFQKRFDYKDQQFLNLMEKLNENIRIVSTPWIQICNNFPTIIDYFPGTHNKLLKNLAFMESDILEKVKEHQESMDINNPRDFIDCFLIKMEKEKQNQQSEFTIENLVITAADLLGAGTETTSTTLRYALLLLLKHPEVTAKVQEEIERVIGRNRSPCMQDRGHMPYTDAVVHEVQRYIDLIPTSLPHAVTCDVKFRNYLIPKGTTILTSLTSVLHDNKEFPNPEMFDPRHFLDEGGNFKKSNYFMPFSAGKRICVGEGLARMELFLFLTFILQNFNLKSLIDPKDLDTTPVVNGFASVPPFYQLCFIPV
# Assay: Cytochrome panel assay with activity outcomes. Panel member name: p450-cyp2c19 Compounds with AC50 equal or less than 10 uM are considered active
# Type: functional
# Conditions: not given
row,Compound,AC50
1,COc1ccc(-c2nc3cnc(N4CCN(C)CC4)nc3n(Cc3cccs3)c2=O)cc1,inconclusive
2,O=C(N[C@@]1(C(=O)O)C[C@@H]1c1ccccc1)c1ccccc1,inconclusive
3,O=C(CCN1CCCCC1)N1CCc2c([nH]c3ccccc23)[C@H]1c1cccnc1,inconclusive
4,O=C(O)C(=O)Cc1ccc2c(c1)OCO2,inconclusive

# Same assay, conditions: read-out: AC50
row,Compound,AC50
1,CCN1CCN(C(c2ccccn2)c2c(NC(=O)c3ccccc3)sc(C)c2C)CC1 (stereo not given),17.8 µM (inconclusive)
2,Cc1nc(-c2cccnc2)sc1C(N)=O,5.01 µM (inconclusive)
3,O=C(CSc1nc2ccccc2c2ccccc12)c1ccccc1,6.31 µM (inconclusive)
4,CCC(C)N1C(=O)C2C(C(=O)Nc3cccc(OC)c3)C3C=CC2(O3)C1C(=O)NC1CCCCC1C (stereo not given),28.2 µM (inconclusive)
5,Cc1onc(-c2ccccc2Cl)c1C(=O)NCC(=O)O,39.8 µM (inconclusive)
6,COc1ncc2nc(C)c(=O)n(-c3ccccc3)c2n1,39.8 µM (inconclusive)
7,N#C/C(=C(/O)CN1CCCCC1)c1nc(-c2ccc(Cl)cc2)cs1,10 µM (inconclusive)
8,Cn1c(=O)cnc2cnc(Oc3ccccc3)nc21,39.8 µM (inconclusive)
9,O=c1c2ccccc2c(-c2ccc(Br)cc2)nn1Cc1ccccc1,5.62 µM (inconclusive)
10,CCCOc1ccc(C(=O)NC(=S)Nc2nc3ccc(C)cc3s2)cc1,15.8 µM (inconclusive)

# Molecular target: Cytochrome P450 2C9 (Homo sapiens, UniProt P11712)
# Sequence (P11712 whole entry): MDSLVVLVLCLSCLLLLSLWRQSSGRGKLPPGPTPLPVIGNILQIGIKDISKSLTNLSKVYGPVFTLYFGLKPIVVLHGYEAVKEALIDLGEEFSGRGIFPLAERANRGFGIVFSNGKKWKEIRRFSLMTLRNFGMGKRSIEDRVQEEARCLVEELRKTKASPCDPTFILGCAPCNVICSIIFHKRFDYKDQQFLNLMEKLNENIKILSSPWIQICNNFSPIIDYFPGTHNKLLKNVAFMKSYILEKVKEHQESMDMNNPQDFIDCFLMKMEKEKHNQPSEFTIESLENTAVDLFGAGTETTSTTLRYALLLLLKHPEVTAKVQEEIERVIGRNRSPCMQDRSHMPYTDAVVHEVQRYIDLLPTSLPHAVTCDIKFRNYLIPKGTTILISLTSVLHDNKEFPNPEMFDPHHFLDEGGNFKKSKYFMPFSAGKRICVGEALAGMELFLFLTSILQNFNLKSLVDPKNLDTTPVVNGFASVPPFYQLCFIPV
# Conditions: not given
row,Compound,AC50
1,O=C(CN1CCCC1)N/N=C/c1ccc(-c2cccc(Cl)c2)o1,15.8 µM (inconclusive)
2,COc1ccc(C(=O)N2CCC3(CC2)CN(c2ccncc2)C3)cc1,39.8 µM (inconclusive)
3,Cc1cc2c(cc1C)NC1=C(O)[C@@H](c3c[nH]c4ccc(COc5ccccc5)cc34)OC1=N2,7.94 µM (inconclusive)
4,C=CCSc1ncccc1C(=O)NCc1ccc(C)cc1,12.6 µM (inconclusive)
5,Cc1c(CCC(C)C)c(-n2ccnc2C)n2c(nc3ccccc32)c1C#N,3.98 µM (inconclusive)
6,COCCn1c(=O)c(-c2ccccc2)nc2cnc(OC)nc21,20 µM (inconclusive)
7,CCC(C)N1C(=O)C2C(C(=O)Nc3cccc(OC)c3)C3C=CC2(O3)C1C(=O)NC1CCCCC1C (stereo not given),12.6 µM (inconclusive)
8,Cc1ccccc1C(=O)N1CCc2ccccc2C1,5.62 µM (inconclusive)
9,COC(=O)[C@@H]1CC[C@H](C)[C@@H](c2ccc(C)cc2)N1C(=O)c1ccc(/C=N\O[C@@H](C)CN2CCCc3nc(C)c(C)cc32)cc1,3.16 µM (inconclusive)
10,N#Cc1c(Cl)cccc1-n1ccnc1,2.82 µM (inconclusive)
11,O=[N+]([O-])c1ccc(C2=Nn3c(nnc3-c3ccc(Cl)cc3)SC2)o1,7.94 µM (inconclusive)
12,O=c1c(-c2ccc(Cl)cc2)nc2cnc(N3CCNCC3)nc2n1-c1ccccc1,15.8 µM (inconclusive)
13,O=c1c2ccccc2c(-c2ccc(Br)cc2)nn1Cc1ccccc1,3.55 µM (inconclusive)
14,CC#CCOC(=O)c1c(C)nc2sc3c(c2c1N)CC[C@@H](O)C3,15.8 µM (inconclusive)
